What was measured:
[1] = test system: Pyrenophora teres; test: Activity against net blotch of barley caused by Pyrenophora teres, 1 day protective application (comparative test); type: in vivo; settings: potted barley seedlings, sprayed 24 h before inoculation; visual % infection of entire leaf area after 6 days; concentration not given; untreated 90%
Procedure: The active compounds were prepared as a stock solution comprising 25 mg of active compound which was made up to 10 ml using a mixture of acetone and/or DMSO and the emulsifier Uniperol® EL (wetting agent having emulsifying and dispersing action based on ethoxylated alkylphenols) in a volume ratio of solvent/emulsifier of 99/1. The mixture was then made up to 100 ml with water. This stock solution was diluted with the solvent/emulsifier/water mixture described to the concentration of active compound stated below.
Comparative test—Activity against net blotch of barley caused by Pyrenophora teres, 1 day protective application
Leaves of potted barley seedlings were sprayed to runoff point with an aqueous suspension having the concentration of active compound stated below. 24 hours after the spray coating had dried on, the test plants were inoculated with an aqueous spore suspension of Pyrenophora [syn. Drechslera] teres, the net blotch pathogen. The test plants were then placed in a greenhouse at temperatures between 20 and 24° C. and 95 to 100% relative atmospheric humidity. After 6 days, the extent of the development of the disease was determined visually in % infection of the entire leaf area.

With `C=CCCCCc1c(C)nc2cc(C)nn2c1N` [I-1] the Infection in % [1] was 40% and the melting point was 178 to 179 °C.
`CCCCCCc1c(C)nc2cc(C)nn2c1N` [compound 30, reference compound] showed an Infection in % [1] of 90%.
